Results taken from ChEMBL document CHEMBL4706692, “CC-90009: A Cereblon E3 Ligase Modulating Drug That Promotes Selective Degradation of GSPT1 for the Treatment of Acute Myeloid Leukemia” (J Med Chem, 2021).
The source made the active and inactive calls. No cut-off for these calls is given here.

Legend:
THLE-2 = experiment: Cytotoxicity against human THLE-2 cells assessed as cell viability incubated for 72 hrs by cell titer glo assay; format: cell-based; conditions: THLE-2, 72 h
[1] = Selectivity index, ratio of IC50 for cytotoxicity against human THLE-2 cells to IC50 for antiproliferative activity against human KG-1 cells
KG-1 = experiment: Antiproliferative activity against human KG-1 cells assessed as reduction in cell viability incubated for 72 hrs by cell titer glo assay; format: functional, cell-based; conditions: KG-1, 72 h
Homo sapiens = species: Homo sapiens; experiment: Inhibition of P-gp (unknown origin) at upto 3 uM; conditions: dose microM <=3
[2] = biological target: Solute carrier organic anion transporter family member 1B1 (Homo sapiens, UniProt Q9Y6L6); experiment: Inhibition of OATP1B1 (unknown origin) at upto 3 uM
[3] = Volume of distribution at steady state in CD1 mouse at 2 mg/kg, iv administered as bolus dose; format: ADME, organism-based; conditions: in vivo, read-out: Vdss
[4] = biological target: T1, Protein cereblon/Eukaryotic peptide chain release factor GTP-binding subunit ERF3A (Homo sapiens) (UniProt Q96SW2+P15170); experiment: Protac activity at CRBN/GSPT1 in human NB-4 cells assessed as induction of GSPT1 degradation at 0.001 to 1 uM incubated for 4 hrs by western blot analysis; format: cell-based; conditions: dose 0.001-1 µM
[5] = biological target: Solute carrier organic anion transporter family member 1B3 (Homo sapiens, UniProt Q9NPD5); experiment: Inhibition of OATP1B3 (unknown origin) at upto 3 uM
[6] = biological target: T1, Protein cereblon/Eukaryotic peptide chain release factor GTP-binding subunit ERF3A (Homo sapiens); experiment: Protac activity at CRBN/GSPT1 in human DF15 cells assessed as in depth GSPT1 degradation incubated for 4 hrs by hunter detection reagent based luminescence assay; format: cell-based
[7] = biological target: Voltage-gated inwardly rectifying potassium channel KCNH2 (Homo sapiens, UniProt Q12809); experiment: Inhibition of human ERG
[8] = biological target: T1, Protein cereblon/Eukaryotic peptide chain release factor GTP-binding subunit ERF3A (Homo sapiens); experiment: Protac activity at CRBN/GSPT1 in human KG-1 cells assessed as GSPT1 degradation by measuring accumulation of CHOP at 200 uM incubated for 4 hrs by western blot analysis; format: cell-based
[9] = biological target: T1, Protein cereblon/Eukaryotic peptide chain release factor GTP-binding subunit ERF3A (Homo sapiens); experiment: Protac activity at CRBN/GSPT1 in CD3+ T cells derived from patients assessed as reduction of GSPT1 levels at 2.4 mg, iv administered for 5 days by flow cytometry analysis relative to control; format: organism-based; parameters: scale not given: the % may be the effect or the level left; conditions: CD3-positive T cell, time 5.0 day
[10] = Clearance in CD-IGS rat at 2 mg/kg, iv administered as bolus dose; format: ADME, organism-based; conditions: in vivo
[11] = biological target: Muscarinic acetylcholine receptor M1 (Homo sapiens) (UniProt P11229); experiment: Inhibition of human muscarinic M1 receptor at 10 uM relative to control
[12] = MRT in CD-IGS rat at 2 mg/kg, iv administered as bolus dose; format: ADME, organism-based; conditions: in vivo
[13] = biological target: Solute carrier family 22 member 2 (Homo sapiens, UniProt O15244); experiment: Inhibition of OCT2 (unknown origin) at upto 3 uM
[14] = Total clearance in iv dosed acute myeloid leukemia patient; format: ADME, organism-based; conditions: human, in vivo
[15] = Clearance in cynomolgus monkey at 1 mg/kg, iv administered as bolus dose; format: ADME, organism-based, Macaca fascicularis; conditions: in vivo
[16] = biological target: T1, Protein cereblon/Eukaryotic peptide chain release factor GTP-binding subunit ERF3A (Homo sapiens); experiment: Protac activity at CRBN/GSPT1 in CD3+ T cells derived from patients assessed as reduction of GSPT1 levels in peripheral blood blast administered intravenously for 5 days by flow cytometry analysis; format: cell-based; conditions: CD3-positive T cell, time 5.0 day
[17] = biological target: T1, Protein cereblon/Eukaryotic peptide chain release factor GTP-binding subunit ERF3A (Homo sapiens); experiment: Protac activity at CRBN/GSPT1 in human DF-15 cells assessed as GSPT1 degradation at 0.2 to 3 uM incubated for 4 to 6 hrs by Incell-hunter detection reagent based luminescence assay relative to control; format: cell-based; conditions: DF15, dose 0.2-3 µM, time 4-6 hrs
[18] = Volume of distribution in iv dosed acute myeloid leukemia patient; format: ADME, organism-based; conditions: human, in vivo
[19] = Volume of distribution at steady state in CD-IGS rat at 2 mg/kg, iv administered as bolus dose; format: ADME, organism-based; conditions: in vivo, read-out: Vdss
[20] = Terminal half life in iv dosed acute myeloid leukemia patient; format: ADME, organism-based; conditions: human, in vivo, read-out: beta t1/2 (converted)
[21] = biological target: T1, Protein cereblon/Eukaryotic peptide chain release factor GTP-binding subunit ERF3A (Homo sapiens); experiment: Protac activity at CRBN/GSPT1 in human KG-1 cells assessed as GSPT1 degradation by measuring accumulation of ATF4 at 200 uM incubated for 4 hrs by western blot analysis; format: cell-based
HL-60 [22] = experiment: Antitumor activity against human HL-60 cells in xenografted model assessed as reduction in CD33+/CD45+ in bone marrow at 5 mg/kg, BID administered for 5 consecutive days relative to control; format: functional; conditions: HL-60, 120 h, time 5 day
[23] = biological target: T1, Protein cereblon/Eukaryotic peptide chain release factor GTP-binding subunit ERF3A (Homo sapiens); experiment: Protac activity at CRBN/GSPT1 in CD3+ T cells derived from patients assessed as reduction of GSPT1 levels in T cells administered intravenously for 5 days by flow cytometry analysis; conditions: CD3-positive T cell, time 5.0 day
[24] = biological target: Solute carrier family 22 member 6 (Homo sapiens, UniProt Q4U2R8); experiment: Inhibition of OAT1 (unknown origin) at upto 3 uM
[25] = biological target: T1, Protein cereblon/Eukaryotic peptide chain release factor GTP-binding subunit ERF3A (Homo sapiens); experiment: Protac activity at CRBN/GSPT1 in human KG-1 cells assessed as GSPT1 degradation by measuring accumulation of ATF3 at 200 uM incubated for 4 hrs by western blot analysis; format: cell-based
[26] = biological target: T1, Protein cereblon/Eukaryotic peptide chain release factor GTP-binding subunit ERF3A (Homo sapiens); experiment: Protac activity at CRBN/GSPT1 in human KG-1 cells assessed as GSPT1 degradation at 1 uM incubated for 4 hrs by western blot analysis; format: cell-based
[27] = MRT in CD1 mouse at 2 mg/kg, iv administered as bolus dose; format: ADME, organism-based; conditions: in vivo
[28] = biological target: Broad substrate specificity ATP-binding cassette transporter ABCG2 (Homo sapiens, UniProt Q9UNQ0); experiment: Inhibition of BCRP (unknown origin) at upto 3 uM
[29] = biological target: T1, Protein cereblon/Eukaryotic peptide chain release factor GTP-binding subunit ERF3A (Homo sapiens); experiment: Protac activity at CRBN/GSPT1 in human DF-15 cells assessed as maximum GSPT1 degradation incubated for 20 hrs by hunter detection reagent based luminescence assay relative to control; format: cell-based; conditions: DF15
[30] = biological target: T1, Protein cereblon/Eukaryotic peptide chain release factor GTP-binding subunit ERF3A (Homo sapiens); experiment: Protac activity at CRBN/GSPT1 in human DF15 cells assessed as maximum GSPT1 degradation incubated for 4 hrs by hunter detection reagent based luminescence assay relative to control; format: cell-based
Cereblon/Ikaros = Cereblon/Ikaros (Homo sapiens, UniProt Q13422+Q96SW2); experiment: Protac activity at CRBN/IKZF1 (unknown origin) assessed as IKZF1 degradation; format: protein-complex assay
HL-60 [31] = experiment: Antitumor activity against human HL-60 cells in xenografted model assessed as reduction in CD33+/CD45+ in bone marrow at 2.5 mg/kg, BID administered for 10 consecutive days relative to control; format: functional; conditions: HL-60, 240 h, time 10 day
CYP2C9 = CYP2C9 (Homo sapiens, UniProt P11712); experiment: Inhibition of CYP2C9 (unknown origin) at 2.5 uM relative to control; format: ADME
[32] = biological target: Muscarinic acetylcholine receptor M2 (Homo sapiens) (UniProt P08172); experiment: Inhibition of human muscarinic M2 receptor at 10 uM relative to control
[33] = biological target: Multidrug and toxin extrusion protein 2 (Homo sapiens, UniProt Q86VL8); experiment: Inhibition of MATE2 (unknown origin) at upto 3 uM
[34] = biological target: T1, Protein cereblon/Eukaryotic peptide chain release factor GTP-binding subunit ERF3A (Homo sapiens); experiment: Protac activity at CRBN/GSPT1 in human DF-15 cells assessed as in depth GSPT1 degradation incubated for 20 hrs by hunter detection reagent based luminescence assay relative to control; format: cell-based; conditions: DF15
[35] = biological target: ATP-binding cassette sub-family C member 2 (Homo sapiens, UniProt Q92887); experiment: Inhibition of MRP2 (unknown origin) at upto 3 uM
[36] = Clearance in CD1 mouse at 2 mg/kg, iv administered as bolus dose; format: ADME, organism-based; conditions: in vivo
Bone marrow cell = experiment: Antiproliferative activity in bone marrow cells derived from AML patients assessed as cell growth inhibition; format: functional, cell-based; conditions: Homo sapiens
Cytochrome P450 2C19 = Cytochrome P450 2C19 (Homo sapiens, UniProt P33261); experiment: Inhibition of CYP2C19 (unknown origin); format: ADME
[37] = MRT in cynomolgus monkey at 1 mg/kg, iv administered as bolus dose; format: ADME, organism-based, Macaca fascicularis; conditions: in vivo
[38] = biological target: Organic anion transporter 3 (Homo sapiens, UniProt Q8TCC7); experiment: Inhibition of OAT3 (unknown origin) at upto 3 uM
[39] = Volume of distribution at steady state in cynomolgus monkey at 1 mg/kg, iv administered as bolus dose; format: ADME, organism-based, Macaca fascicularis; conditions: in vivo, read-out: Vdss
[40] = biological target: T1, Protein cereblon/Eukaryotic peptide chain release factor GTP-binding subunit ERF3A (Homo sapiens); experiment: Protac activity at CRBN/GSPT1 in human KG-1 cells assessed as GSPT1 degradation at 1 uM incubated for 4 hrs in presence of proteasome inhibitor bortezomib by western blot analysis; format: cell-based
[41] = biological target: T1, Protein cereblon/Eukaryotic peptide chain release factor GTP-binding subunit ERF3A (Homo sapiens); experiment: Protac activity at CRBN/GSPT1 in human KG-1 cells assessed as GSPT1 degradation at 1 uM incubated for 4 hrs in presence of neddylation inhibitor MLN4924 by western blot analysis; format: cell-based
[42] = biological target: Protein cereblon/Zinc finger protein Aiolos (Homo sapiens, UniProt Q96SW2+Q9UKT9); experiment: Protac activity at CRBN/IKZF3 (unknown origin) assessed as IKZF3 degradation; format: protein assay
[43] = Toxicity in cynomolgus monkey assessed as effect on cardiovascular system; parameters: species or system Macaca fascicularis; conditions: in vivo

T1 sequence (P15170 whole entry, looked up): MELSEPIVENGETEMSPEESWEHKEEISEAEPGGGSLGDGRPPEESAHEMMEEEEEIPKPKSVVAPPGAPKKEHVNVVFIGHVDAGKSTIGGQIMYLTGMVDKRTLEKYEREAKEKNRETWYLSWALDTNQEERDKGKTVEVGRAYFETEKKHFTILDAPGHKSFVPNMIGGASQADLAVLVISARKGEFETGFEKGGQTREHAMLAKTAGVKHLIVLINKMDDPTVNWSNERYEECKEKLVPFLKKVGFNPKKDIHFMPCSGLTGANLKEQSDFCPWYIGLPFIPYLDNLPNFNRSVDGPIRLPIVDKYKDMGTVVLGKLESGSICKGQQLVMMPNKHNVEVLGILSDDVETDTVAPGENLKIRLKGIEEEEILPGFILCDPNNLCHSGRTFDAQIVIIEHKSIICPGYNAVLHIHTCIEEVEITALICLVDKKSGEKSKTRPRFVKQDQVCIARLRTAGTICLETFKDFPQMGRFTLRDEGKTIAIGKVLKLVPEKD
T1 sequence (Q96SW2 whole entry, looked up): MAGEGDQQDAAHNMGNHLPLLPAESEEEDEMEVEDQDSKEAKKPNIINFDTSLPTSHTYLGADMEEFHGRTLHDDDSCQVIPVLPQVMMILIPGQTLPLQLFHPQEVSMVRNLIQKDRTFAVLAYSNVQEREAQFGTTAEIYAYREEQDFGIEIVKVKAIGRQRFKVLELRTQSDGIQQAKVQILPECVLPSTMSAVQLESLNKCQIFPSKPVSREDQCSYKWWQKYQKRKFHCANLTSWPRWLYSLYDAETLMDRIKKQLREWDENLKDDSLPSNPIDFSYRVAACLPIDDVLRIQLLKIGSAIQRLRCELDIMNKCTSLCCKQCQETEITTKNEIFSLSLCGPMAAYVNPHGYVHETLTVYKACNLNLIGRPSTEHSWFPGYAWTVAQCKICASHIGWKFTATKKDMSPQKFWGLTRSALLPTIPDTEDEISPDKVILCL
Sequence of Solute carrier family 22 member 2 (O15244 whole entry): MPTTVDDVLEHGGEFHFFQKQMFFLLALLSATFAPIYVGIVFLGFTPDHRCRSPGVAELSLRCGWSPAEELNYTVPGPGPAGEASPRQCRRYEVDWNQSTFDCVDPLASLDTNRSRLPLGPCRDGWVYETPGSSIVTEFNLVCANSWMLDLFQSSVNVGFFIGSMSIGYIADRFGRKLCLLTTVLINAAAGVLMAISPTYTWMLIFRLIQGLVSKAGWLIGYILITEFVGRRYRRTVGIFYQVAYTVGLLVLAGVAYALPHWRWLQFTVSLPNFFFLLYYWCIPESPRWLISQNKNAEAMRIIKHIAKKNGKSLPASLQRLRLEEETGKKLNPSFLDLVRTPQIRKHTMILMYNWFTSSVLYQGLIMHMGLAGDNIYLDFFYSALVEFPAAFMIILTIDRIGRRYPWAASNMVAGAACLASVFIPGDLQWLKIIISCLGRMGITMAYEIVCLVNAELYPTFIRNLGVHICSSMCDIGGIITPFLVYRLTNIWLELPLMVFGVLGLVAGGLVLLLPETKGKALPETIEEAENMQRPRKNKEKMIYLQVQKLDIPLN
Sequence of Cytochrome P450 2C19 (P33261 whole entry): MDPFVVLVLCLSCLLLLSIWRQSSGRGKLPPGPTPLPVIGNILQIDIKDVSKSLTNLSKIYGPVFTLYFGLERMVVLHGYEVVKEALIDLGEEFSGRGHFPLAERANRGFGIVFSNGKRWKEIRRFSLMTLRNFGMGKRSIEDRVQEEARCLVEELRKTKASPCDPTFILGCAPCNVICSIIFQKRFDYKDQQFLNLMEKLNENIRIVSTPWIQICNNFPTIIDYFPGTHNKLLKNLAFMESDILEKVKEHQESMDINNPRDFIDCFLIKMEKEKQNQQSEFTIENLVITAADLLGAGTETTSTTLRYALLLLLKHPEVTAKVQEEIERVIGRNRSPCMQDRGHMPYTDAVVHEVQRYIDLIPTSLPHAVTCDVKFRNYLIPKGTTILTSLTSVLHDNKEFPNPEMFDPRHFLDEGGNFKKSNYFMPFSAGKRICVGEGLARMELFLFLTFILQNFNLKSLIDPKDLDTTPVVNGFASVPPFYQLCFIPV
Sequence of CYP2C9 (P11712 whole entry): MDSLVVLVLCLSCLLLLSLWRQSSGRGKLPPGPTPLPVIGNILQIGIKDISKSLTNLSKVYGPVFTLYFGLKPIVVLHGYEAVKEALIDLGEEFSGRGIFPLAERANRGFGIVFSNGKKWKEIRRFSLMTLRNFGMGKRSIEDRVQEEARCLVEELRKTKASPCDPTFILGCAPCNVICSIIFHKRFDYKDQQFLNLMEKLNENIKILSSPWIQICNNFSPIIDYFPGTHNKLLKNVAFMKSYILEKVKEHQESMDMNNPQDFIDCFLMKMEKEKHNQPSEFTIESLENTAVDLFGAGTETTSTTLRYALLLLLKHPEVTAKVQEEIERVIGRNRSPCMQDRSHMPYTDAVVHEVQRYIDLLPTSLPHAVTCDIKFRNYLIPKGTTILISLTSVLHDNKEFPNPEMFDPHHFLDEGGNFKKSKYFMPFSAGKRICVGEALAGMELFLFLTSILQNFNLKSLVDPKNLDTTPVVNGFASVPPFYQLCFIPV
Sequence of Muscarinic acetylcholine receptor M2 (Homo sapiens) (P08172 whole entry): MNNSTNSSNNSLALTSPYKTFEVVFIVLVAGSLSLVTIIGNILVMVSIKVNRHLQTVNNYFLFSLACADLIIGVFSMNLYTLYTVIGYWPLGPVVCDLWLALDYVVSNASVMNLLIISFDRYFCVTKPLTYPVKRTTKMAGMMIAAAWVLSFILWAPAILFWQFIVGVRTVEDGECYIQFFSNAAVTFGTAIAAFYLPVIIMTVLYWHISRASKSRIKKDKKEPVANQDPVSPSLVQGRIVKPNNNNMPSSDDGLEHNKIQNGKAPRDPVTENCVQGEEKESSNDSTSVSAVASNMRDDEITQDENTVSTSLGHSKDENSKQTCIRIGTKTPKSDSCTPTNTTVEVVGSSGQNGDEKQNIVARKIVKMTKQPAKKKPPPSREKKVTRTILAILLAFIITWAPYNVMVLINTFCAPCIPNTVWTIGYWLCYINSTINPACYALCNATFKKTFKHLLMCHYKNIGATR
Sequence of Broad substrate specificity ATP-binding cassette transporter ABCG2 (Q9UNQ0 whole entry): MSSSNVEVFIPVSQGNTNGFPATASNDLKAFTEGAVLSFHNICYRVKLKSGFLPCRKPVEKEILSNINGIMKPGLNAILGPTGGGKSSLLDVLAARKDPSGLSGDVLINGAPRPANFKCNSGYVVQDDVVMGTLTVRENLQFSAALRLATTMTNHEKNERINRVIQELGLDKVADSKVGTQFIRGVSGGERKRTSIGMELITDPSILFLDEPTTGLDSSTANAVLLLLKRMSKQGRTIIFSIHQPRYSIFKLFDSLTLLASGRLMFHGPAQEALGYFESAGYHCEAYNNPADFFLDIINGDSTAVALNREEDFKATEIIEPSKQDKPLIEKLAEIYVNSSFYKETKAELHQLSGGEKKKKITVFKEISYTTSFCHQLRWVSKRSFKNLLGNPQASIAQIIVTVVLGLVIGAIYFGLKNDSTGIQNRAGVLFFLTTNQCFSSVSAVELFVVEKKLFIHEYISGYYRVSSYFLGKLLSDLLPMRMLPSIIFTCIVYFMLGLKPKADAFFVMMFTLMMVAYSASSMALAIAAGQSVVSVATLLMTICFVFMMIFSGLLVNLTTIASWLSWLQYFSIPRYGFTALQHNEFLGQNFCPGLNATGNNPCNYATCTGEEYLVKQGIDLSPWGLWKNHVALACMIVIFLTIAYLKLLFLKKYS
Sequence of Voltage-gated inwardly rectifying potassium channel KCNH2 (Q12809 whole entry): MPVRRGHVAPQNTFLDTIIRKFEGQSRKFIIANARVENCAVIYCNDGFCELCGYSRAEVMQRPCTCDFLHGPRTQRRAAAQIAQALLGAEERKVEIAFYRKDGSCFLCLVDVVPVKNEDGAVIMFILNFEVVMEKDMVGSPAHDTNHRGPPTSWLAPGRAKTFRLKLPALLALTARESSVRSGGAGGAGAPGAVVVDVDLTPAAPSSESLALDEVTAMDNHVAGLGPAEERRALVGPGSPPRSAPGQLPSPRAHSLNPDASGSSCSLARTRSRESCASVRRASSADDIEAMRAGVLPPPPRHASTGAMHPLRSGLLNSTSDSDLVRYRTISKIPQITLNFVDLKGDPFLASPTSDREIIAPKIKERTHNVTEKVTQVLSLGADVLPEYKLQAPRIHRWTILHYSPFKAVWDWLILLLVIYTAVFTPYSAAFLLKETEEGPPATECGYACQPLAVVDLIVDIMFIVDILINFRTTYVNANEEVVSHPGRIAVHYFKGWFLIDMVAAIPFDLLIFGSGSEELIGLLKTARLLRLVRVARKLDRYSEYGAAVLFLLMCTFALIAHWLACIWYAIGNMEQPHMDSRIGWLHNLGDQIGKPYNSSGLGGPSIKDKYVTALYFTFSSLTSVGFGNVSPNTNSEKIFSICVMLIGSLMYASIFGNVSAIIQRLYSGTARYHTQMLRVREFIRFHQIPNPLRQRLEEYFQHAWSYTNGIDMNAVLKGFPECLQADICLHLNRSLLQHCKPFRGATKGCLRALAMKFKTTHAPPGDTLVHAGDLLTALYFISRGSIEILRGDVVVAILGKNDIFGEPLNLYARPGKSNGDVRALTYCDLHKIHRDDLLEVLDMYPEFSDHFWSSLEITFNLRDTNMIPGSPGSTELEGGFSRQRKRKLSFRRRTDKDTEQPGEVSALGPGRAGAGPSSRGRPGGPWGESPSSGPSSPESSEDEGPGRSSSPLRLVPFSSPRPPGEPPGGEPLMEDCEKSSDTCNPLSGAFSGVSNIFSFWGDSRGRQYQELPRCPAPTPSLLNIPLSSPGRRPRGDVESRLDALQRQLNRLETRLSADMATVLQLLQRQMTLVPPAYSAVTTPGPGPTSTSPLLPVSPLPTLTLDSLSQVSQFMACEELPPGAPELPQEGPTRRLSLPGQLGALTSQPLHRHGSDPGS

O=C1CCC(N2Cc3cc(CNC(=O)C(F)(F)c4ccccc4)ccc3C2=O)C(=O)N1 (stereo not given)
IC50 (THLE-2): > 10000 nM | Ratio IC50 [1]: >100 | IC50 (KG-1): 97 nM

O=C1CCC(N2Cc3cc(CNC(=O)C(F)(F)c4ccc(Cl)cc4)ccc3C2=O)C(=O)N1 (stereo not given)
inhibition (Homo sapiens): inactive | inhibition (INH) [2]: Not Active | Vd [3]: 1 L/kg | Activity [4]: Active | inhibition (INH) [5]: Not Active | Activity [6]: Active | IC50 [7]: 5300 nM | Activity [8]: Active | Activity [9]: 90% | clearance [10]: 28.3 mL/min/kg | inhibition [11]: > 50% | MRT [12]: 1.3 h | inhibition (INH) [13]: Not Active | clearance [14]: 116 mL/min | clearance [15]: 6 mL/min/kg | Activity [16]: Dose-dependent effect | Activity [17]: 75% | Vd [18]: 61.7 L | Vd [19]: 2.2 L/kg | half-life [20]: 9.3 h | Activity [21]: Active | inhibition in vivo at 5 mg/kg (HL-60 [22]): 54% | Activity [23]: Dose-dependent effect | inhibition (INH) [24]: Not Active | Activity [25]: Active | Activity [26]: Active | MRT [27]: 0.24 h | inhibition (INH) [28]: Not Active | Emax [29]: 88% | Emax [30]: 51% | EC50 (Cereblon/Ikaros): > 10000 nM | inhibition in vivo at 2.5 mg/kg (HL-60 [31]): 71.5% | inhibition at 2.5 µM (CYP2C9): 41% | inhibition [32]: > 50% | inhibition (INH) [33]: Not Active | Activity [34]: Active | inhibition (INH) [35]: Not Active | clearance [36]: 67.9 mL/min/kg | EC50 (Bone marrow cell): 6 nM | IC50 (Cytochrome P450 2C19): 1530 nM | MRT [37]: 4 h | inhibition (INH) [38]: Not Active | Vd [39]: 1.1 L/kg | Activity [40]: inactive | Activity [41]: inactive | EC50 [42]: > 10000 nM | Activity [43]: Non-Toxic
